In patent publication US12063902B2, “Method of regenerating cannabis” (The State of Israel, Ministry of Agriculture & Rural …, priority 2018, dated 2024):

What was measured:
[1] = test system: Cannabis leaf segment explants; assay: Somatic embryogenesis in liquid culture; format: cell-based, Cannabis sativa; details: liquid Gamborg B5 medium
Description: Leaf segments from tissue culture grown on the solid medium (1.5 cm diameter and 4-5 cm long) of two Cannabis cultivars (108 and 201) were used. Innermost leaf whorls were cut obliquely (0.5-1.0 cm), injured with sharp scalpel blade in order to achieve callus initiation. Leaf segment, were used as explant for inoculation on MS medium (Murashige and Skoog 1962) supplemented with 2,4-D (4.0 mg/L) and kinetin [Kin] (0.5 mg/L). After 2-3 weeks the cultures were incubated at 25±2 C at 70-80% humidity in dark in liquid Gamborg B5 medium supplemented with 6% sucrose and different plant hormones (Table 1). The media was refreshed every three weeks.
Leaf segments from tissue culture from two different genotypes (108 and 201) have been used as primary explants. The explants were chopped to small pieces (as less as 0.5 mm) and cultivated in liquid Gamborg B5 medium supplemented with 6% sucrose and different plant hormones (Table 1). The media were refreshed every three weeks.
The initiated suspension cultures along with embryos in globular stage (FIGS. 12A-12B) were sub-cultured in the same medium for three weeks. Part of the cultures was transferred to B5 Gamborg media, supplemented with different hormones/chemicals (Table 2) to provoke embryo elongation and further development. The cultures were transferred to fresh media every three weeks.

[2] = test system: Cannabis shoots; assay: Rooting (root induction) of shoots; format: cell-based, Cannabis sativa L.
Description: Shoot was cultivated individually in a tube with root induction (RI) medium composed of half strength MS medium (½MS) supplemented with 100 mg/l myo-inositol, 1 mg/l thiamine-HCl, 90 mg/l phloroglucinol, 2% sucrose (w/v), 0.25% activated charcoal (AC), with or without IBA (at different concentrations (0, 1, 2 mg/l) and 0.8% agar. Soil mixture was moistened by soaking the rooting cylinders in liquid RI medium supplemented with either 0, 1, or 2 mg/l IBA. Each treatment consisted of 10 shoots and results were scored after 4 weeks. Each experiment was repeated three times.
To obtain root induction, different concentrations of IBA were examined. The shoots were placed in a tube containing rooting medium containing 0, 1, or 2 mg/l IBA. Using this method with 2 mg/l IBA, about 85% of the shoots formed roots. However, only low percentage of these plants successfully acclimatized under greenhouse conditions. According to the second approach, shoots were cultured directly in rooting cylinders. After 4 weeks, 100% root formation was achieved, independently of the concentration of auxin used (FIGS. 5A-5C). These plants had better hardening and underwent easier acclimatization in greenhouse conditions. In-vitro clonal propagation, rooting and acclimatized plantlet production was established for 10 different Cannabis cultivars. […]

[3] = test system: Cannabis explants; assay: Shoot regeneration in tissue culture with "regeneration premium treatment"; format: cell-based, Cannabis sativa
Description: Regeneration from Cannabis plant material using tissue culture, germinated leaves, cotyledons and hypocotyls were used for regeneration. The plants were placed on a petri dish containing 20 ml regeneration media using premium treatment with cuticle nicking enzymes: MS salt mixture, supplemented with 100 mg/l myo-inositol, 1 mg/l thiamine-HCl, 2% sucrose (w/v) at pH 5.7) with and without 5 ml pectic enzymes reaction mixture (0.25 ml 10% enzyme fungal mix of pectin and cutinase 0.25 ml 200 mM Tris-HCl).
Three youngest expanding leaves isolated from 3 to 4 weeks old plants were with and placed on regeneration medium with cuticle nicking enzymes (Murashige and Skoog (MS) medium salt mixture, containing 0.05-5.0 μM thidiazuron, supplemented with 100 mg/l myo-inositol, 1 mg/l thiamine-HCl, 2% sucrose (w/v) at pH 5.7, with 5 ml pectic enzymes reaction mixture (0.25 ml 10% cuticle nicking enzyme in 0.25 ml 200 mM Tris-HCl). The cultures were kept for 7 days in low light intensity (2.5 mmol/m2 s) followed by exposure to high light intensity (40 mmol/m2 s) at 25° C., in a 16/8 h photoperiod. Leaf explants were examined after 14 and 21 days and the percentage of explant producing shoots were calculated. […]

In the case of `CC(C)=CCNc1ncnc2nc[nH]c12` [2iP], the “amount of somatic embryos generated” value ([1]; gyratory shaker at dark) is reported as “Low amounts of embryos”.
With `O=C(Nc1ccccc1)Nc1ccnc(Cl)c1` [CPPU] the somatic embryo initiation ([1]; 10 mg/l, 6% sucrose) was “essential for the embryo initiation”.
With `O=C(O)CCCc1c[nH]c2ccccc12` [IBA, indol-3-butyric acid] the root formation ([2]; shoots cultured directly in rooting cylinders, after 4 weeks, independently of the concentration of auxin (0, 1, 2 mg/l IBA)) was 100% and the shoots formed roots ([2]; tube containing rooting medium, 2 mg/l IBA) was “about 85%”.
`C=C1C[C@]23C[C@@]1(O)CC[C@H]2[C@@]12C=C[C@H](O)[C@@](C)(C(=O)O1)[C@H]2[C@@H]3C(=O)O` [gibberellic acid] was tested, and the shoot growth ([3]; 7.0 μM gibberellic acid added to medium containing 0.5 μM thidiazuron) was “slightly increased shoot growth”.
With `O=C(Nc1ccccc1)Nc1cnns1` [thidiazuron] the “quality and quantity of regenerates” value ([3]; 0.5 μM thidiazuron, media treatment with cuticle nicking enzymes) was “better”.
